Data set [1] concerns Plasma. As to the kind of experiment: Plasma concentration in C57BL/6 mouse at 3 to 30 mg/kg, po. The format is ADME, organism-based. Conditions: in vivo.
A short description of data set [2]: Lipophilicity, log D of compound by HPLC analysis. In kind it is physicochemical.
The nature of data set [3]: Oral bioavailability in rat at 10 mg/kg. The settings on record: in vivo. The format is ADME, organism-based.
Data set [4] in a line: Kinetic solubility of the compound at pH 2 by HPLC analysis. In kind it is physicochemical. The settings on record: buffer, read-out: Kinetic_solubility.
Data set [5] in a line: Drug uptake in CSF of C57BL/6 mouse at 30 mg/kg, po. In kind it is ADME, organism-based, Cerebrospinal fluid. The settings on record: in vivo.
For data set [6], the system named is Brain. As to the kind of experiment: Drug uptake in C57BL/6 mouse brain at 30 mg/kg, po. The format is ADME, organism-based. The settings on record: in vivo.
A short description of data set [7]: Tmax in po dosed C57BL/6 mouse. The settings on record: in vivo. In kind it is ADME, organism-based.
Data set [8] in a line: Kinetic solubility of the compound at pH 7 by HPLC analysis. In kind it is physicochemical. The settings on record: buffer, read-out: Kinetic_solubility.
Data set [9] has as its system Rattus norvegicus. As to the kind of experiment: Intrinsic clearance in rat at 0.05 mg/kg, iv administered in cassette format or 2 mg/kg, iv administered as single dose or 10 mg/kg, po. The settings on record: in vivo. The format is ADME, organism-based.
Data set [10] relates to Plasma. As to the kind of experiment: Plasma concentration in C57BL/6 mouse at 1 to 10 mg/kg, po. Conditions: in vivo. In kind it is ADME, organism-based.

SMILES strings stand for the structures. In brackets after ≈: the same amount, converted by molar mass.

For orientation: logD means the decadic logarithm of the distribution of all forms, ionised or not, between an organic phase and buffer at a given pH. For orientation: bioavailability means dose-corrected exposure relative to a reference, in per cent. What is called Tmax is the time at which the peak concentration occurs. `O=S(=O)(Nc1nccs1)c1cc(Cl)c(NCC23CCCN2CCC3)cc1F` registered a concentration in data set [1] of 420 nM. Moreover, in [2], the pH-dependent lipophilicity (logD) amounted to 0.7. The same compound showed a bioavailability in data set [3] of 40%. For the same compound, the solubility kinetic is 159 µM (≈ 68.5 µg/mL) in data set [4] and 43 µM (≈ 18.5 µg/mL) in data set [8]. Besides, the figures for the Drug uptake in [5] and in data set [6] were 1% and 6%, respectively. In addition, the Tmax in data set [7] was 3 h.

As for `CC1(C)CN2CCC[C@]2(CNc2cc(F)c(S(=O)(=O)Nc3nccs3)cc2Cl)C1`, the CL in data set [9] amounted to 460 mL/min/kg. In data set [2], this compound showed a pH-dependent lipophilicity (logD) of 1.7. In data set [10], this compound registered a concentration of 250 nM. This compound displayed a bioavailability in data set [3] of 61%. Also, the results for the solubility kinetic in data set [4] and in data set [8] were 143 µM (≈ 65.6 µg/mL) and 28 µM (≈ 12.9 µg/mL), respectively. Besides, in data set [7], the Tmax came to 3 h.

In turn, `Cc1nc(NS(=O)(=O)c2cc(Cl)c(NCC34CCCN3CCC4)cc2F)sc1F` registered a CL in data set [9] of 630 mL/min/kg. For the same compound, the log distribution coefficient (logD) in [2] is 1.3.

In turn, `O=S(=O)(Nc1ncns1)c1cc(Cl)c(NCC23CCCN2CCC3)cc1F` yielded a CL in [9] of 660 mL/min/kg. In data set [2], this compound registered a logD of 0.4.

`O=S(=O)(Nc1nccs1)c1cc(Cl)c(NCC23CCCCN2CCCC3)cc1F` came in with a CL in data set [9] of 3000 mL/min/kg. Moreover, the logD in [2] amounted to 2.2.

Compound `Cc1cnc(NS(=O)(=O)c2cc(Cl)c(NCC34CCCN3CCC4)cc2F)s1` had a CL in data set [9] of 560 mL/min/kg. The same compound yielded a logD in data set [2] of 1.1.

In [9], `O=S(=O)(Nc1ccncn1)c1cc(Cl)c(NCC23CCCN2CCC3)cc1F` yielded a CL of 61 mL/min/kg. The same compound showed a logD in [2] of -0.2.

For `O=S(=O)(Nc1ncc(F)s1)c1cc(Cl)c(NCC23CCCN2CCC3)cc1F`, in data set [9], the CL worked out at 230 mL/min/kg. In data set [2], this compound had a logD of 1. In data set [3], this compound came in with a bioavailability of 55%.

Turning to `O=S(=O)(Nc1nccs1)c1cc(Cl)c(NC[C@]23CCCN2C[C@@H](F)C3)cc1F`, in data set [9], the CL was 810 mL/min/kg. In data set [2], this compound came in with a logD of 1.5. For the same compound, in data set [3], the bioavailability was 57%.

Take `O=S(=O)(Nc1cscn1)c1cc(Cl)c(NCC23CCCN2CCC3)cc1F`: in [2], the logD was found to be 0.7.

As for `O=S(=O)(Nc1ncns1)c1cc(F)c(NCC23CCCN2CCC3)cc1F`, in [9], the CL came out at 62 mL/min/kg. Further, in [2], the logD came to 0. For the same compound, in data set [3], the bioavailability came out at 4%.

In the case of `O=S(=O)(Nc1nccs1)c1cc(Cl)c(NCC23CCCN2CC(F)(F)C3)cc1F` (configuration not stated), the logD in [2] came out at 1.7.

`CC1(C)CN2CCC[C@@]2(CNc2cc(F)c(S(=O)(=O)Nc3nccs3)cc2Cl)C1` gave a CL in data set [9] of 850 mL/min/kg. In data set [2], this compound displayed a logD of 1.7. Besides, in data set [3], the bioavailability was 45%.

`Cc1csc(NS(=O)(=O)c2cc(Cl)c(NCC34CCCN3CCC4)cc2F)n1` had a CL in data set [9] of 71 mL/min/kg. This compound also returned a logD in data set [2] of 1.1. The same compound had a bioavailability in data set [3] of 36%.

In [9], `O=S(=O)(Nc1nccs1)c1cc(Cl)c(NCCC23CCCN2CCC3)cc1F` had a CL of 1600 mL/min/kg. Moreover, in data set [2], the logD was found to be 0.6. In addition, the bioavailability in data set [3] was found to be 30%.

With `O=S(=O)(Nc1ncc(Cl)s1)c1cc(Cl)c(NCC23CCCN2CCC3)cc1F`, in [9], the CL was 780 mL/min/kg. In addition, the logD in [2] was 1.3. Moreover, the bioavailability in data set [3] came to 45%.

In [2], `O=S(=O)(Nc1nccs1)c1cc(Cl)c(NC[C@@]23CCCN2C[C@H](F)C3)cc1F` came in with a logD of 1.5.

`O=S(=O)(Nc1cccc(F)n1)c1cc(Cl)c(NCC23CCCN2CCC3)cc1F` had a CL in data set [9] of 610 mL/min/kg. In addition, in [2], the logD came out at 1. In data set [3], the bioavailability was 26%.
